# Measured values as given in patent US12461089B2, “Olfactory receptor involved in the perception of musk fragrance and the use thereof” (ChemoSensoryX Biosciences SA, priority 2017, dated 2025).
# Key:
# Assay type in all cases: cell-based
# OR11A1 = molecular target: T1, OR11A1 (Homo sapiens, UniProt Q9GZK7); test: Luciferase reporter concentration-response analysis on OR11A1; settings: CRE-luciferase; empty vector pEFIBRHO as control
# T1 construct: expressed in transfected cells; host or cells: HEK293T-RTP1A1/RTP2
# T1 sequence (Q9GZK7 1-315): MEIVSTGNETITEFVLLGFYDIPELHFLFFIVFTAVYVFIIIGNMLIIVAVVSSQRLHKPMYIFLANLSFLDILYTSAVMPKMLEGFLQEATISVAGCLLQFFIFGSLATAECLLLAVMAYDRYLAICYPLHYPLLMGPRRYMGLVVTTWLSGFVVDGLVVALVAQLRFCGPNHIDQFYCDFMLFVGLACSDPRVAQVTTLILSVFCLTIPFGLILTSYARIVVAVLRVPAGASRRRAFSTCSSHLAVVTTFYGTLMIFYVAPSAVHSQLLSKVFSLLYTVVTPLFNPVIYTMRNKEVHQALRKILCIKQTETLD
# Procedure: (§1) HEK293T-RTP1A1/RTP2 cells were maintained in minimal essential medium (EMEM, Lonza) containing 10% fetal bovine serum (M10). These cells were generated by transfecting HEK293T with an expression vector containing the sequences of the chaperone proteins RTP1A1 and RTP2 and a resistance gene to puromycin, using Lipofectamine 2000.
# (§2) Odorant molecules were diluted at a concentration of 1 mole/liter (M) into dimethyl sulfoxide (DMSO) to generate stock solutions.
# (§3) For concentration-response analysis, serial dilutions of the tested molecules were prepared from stock solutions in EMEM plated into 96-well plates.
# (§4) For the initial deorphanisation screening and dose-response analysis, a Luciferase-based gene reporter assay (Promega, Leiden, The Nederlands) was used. Briefly, cells were platted on Poly-D-lysine-coated 96-well and transfected with a plasmid containing the CRE-luciferase and a plasmid containing the olfactory receptor. Sixteen hours after transfection, the culture medium was replaced by serum-free EMEM containing the tested compounds at a determined concentration. After four hours of incubation at 37° C. degree, cells were lysed and processed for luminescence measurement. Luminescene emission was recorded. Results were expressed as luciferase activity (Relative […] Unit (RLU)) or as percentage of the response induced by 10 μM of the adenylate cyclase activator Forskolin. An empty plasmid is used as negative control.
# (§5) 35 musk compounds from the four structurally different chemical groups previously described were tested in concentration-response analyses (Table 2). In each experiment, an empty vector was used as negative control (pEFIBRHO). […] Full results including the calculated EC50 are given in Table 2; “non active” represent negative experiments, no activation after testing.
# These compounds were tested in concentration-response analysis in luciferase assays, as described previously. In each experiment, an empty vector was used as negative control (pEFIBRHO).
# OR5A2_variant 1 = molecular target: T2, OR5A2_variant 1 (Homo sapiens, UniProt Q8NGI9); test: Luciferase reporter concentration-response analysis on OR5A2_variant 1; settings: CRE-luciferase; semi-logarithmic serial dilutions; empty vector pEFIBRHO as control
# T2 construct: expressed in transfected cells; host or cells: HEK293T-RTP1A1/RTP2
# T2 sequence (Q8NGI9 1-324): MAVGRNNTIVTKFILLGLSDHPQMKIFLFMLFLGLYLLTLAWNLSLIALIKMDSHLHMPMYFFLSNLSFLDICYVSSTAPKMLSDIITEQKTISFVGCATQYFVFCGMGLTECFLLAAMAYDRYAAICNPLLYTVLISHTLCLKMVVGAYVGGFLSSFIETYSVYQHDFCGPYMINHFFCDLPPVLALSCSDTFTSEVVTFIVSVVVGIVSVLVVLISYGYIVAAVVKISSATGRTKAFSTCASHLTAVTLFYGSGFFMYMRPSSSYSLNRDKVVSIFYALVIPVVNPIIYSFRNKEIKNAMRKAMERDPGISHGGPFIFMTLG
# Procedure: as §1, §2, §3, §4, §5
# OR5A1 = molecular target: T3, OR5A1 (Homo sapiens, UniProt Q8NGJ0); test: Luciferase reporter concentration-response analysis on OR5A1; settings: CRE-luciferase; empty vector pEFIBRHO as control
# T3 construct: expressed in transfected cells; host or cells: HEK293T-RTP1A1/RTP2
# T3 sequence (Q8NGJ0 1-315): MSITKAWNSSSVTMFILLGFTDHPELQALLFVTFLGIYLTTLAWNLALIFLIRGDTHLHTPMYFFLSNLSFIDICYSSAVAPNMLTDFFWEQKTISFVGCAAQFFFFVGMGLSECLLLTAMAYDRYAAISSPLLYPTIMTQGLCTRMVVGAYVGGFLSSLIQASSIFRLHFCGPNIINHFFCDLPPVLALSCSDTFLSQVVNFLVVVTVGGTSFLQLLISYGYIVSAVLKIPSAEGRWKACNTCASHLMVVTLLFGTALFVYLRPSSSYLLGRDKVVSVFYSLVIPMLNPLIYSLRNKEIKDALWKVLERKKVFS
# Procedure: as §1, with “2000. The recombinant cell population, used in these experiments, was selected by adding 10 μg/ml of puromycin into the culture medium and subsequently subcloned (WO 2014/191047 A1).” for “2000.”
# as §2, §3
# as §4, with “Briefly, cells were platted on Poly-D-lysine-coated 96-well and transfected with a plasmid containing the CRE-luciferase and a plasmid containing the olfactory receptor.” left out, “An empty plasmid is used as negative control.” left out
# OR5AN1 = molecular target: T4, OR5AN1 (Homo sapiens, UniProt Q8NGI8, E89G); test: Luciferase reporter concentration-response analysis on OR5AN1; settings: CRE-luciferase; empty vector pEFIBRHO as control
# T4 construct: expressed in transfected cells; host or cells: HEK293T-RTP1A1/RTP2
# T4 sequence (Q8NGI8 1-311 E89G): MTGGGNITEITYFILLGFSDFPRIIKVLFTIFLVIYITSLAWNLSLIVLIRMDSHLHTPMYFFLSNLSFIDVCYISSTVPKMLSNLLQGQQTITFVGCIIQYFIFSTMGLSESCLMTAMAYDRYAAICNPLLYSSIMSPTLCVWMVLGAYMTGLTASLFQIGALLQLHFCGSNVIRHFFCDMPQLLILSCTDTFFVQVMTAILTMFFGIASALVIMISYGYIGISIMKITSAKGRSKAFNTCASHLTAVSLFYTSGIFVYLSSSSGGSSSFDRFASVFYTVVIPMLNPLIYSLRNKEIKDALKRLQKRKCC
# Procedure: as §1, with “2000. The recombinant cell population, used in these experiments, was selected by adding 10 μg/ml of puromycin into the culture medium and subsequently subcloned (WO 2014/191047 A1).” for “2000.”
# as §2, §3, §4
# In these analyses we also included ORs previously described as musk-specific receptors OR5AN1 (SEQ ID n° 7) (WO 2015/020158 A1, Shirasu et al. 2014 Neuron 81, 165-78, Sato-Akuhara N et al. 2016 J Neurosci. 36(16), 4482-91) and OR11A1 (SEQ ID n° 8) (WO 2016/201152 A1). […] Therefore, OR5A1 was included in the analyses. 35 musk compounds from the four structurally different chemical groups previously described were tested in concentration-response analyses (Table 2). In each experiment, an empty vector was used as negative control (pEFIBRHO). […] Full results including the calculated EC50 are given in Table 2; “non active” represent negative experiments, no activation after testing. […]
# chimeric OR5A2_variant 1 = molecular target: T5, chimeric OR5A2_variant 1 (Homo sapiens, UniProt Q8NGI9, F293L/H55R/I289L/M58T); test: Luciferase reporter concentration-response analysis on chimeric OR5A2_variant 1; settings: CRE-luciferase, empty vector pEFIBRHO as control
# T5 construct: expressed in transfected cells; host or cells: HEK293T-RTP1A1/RTP2
# T5 sequence (Q8NGI9 with tags, fused parts or gaps H55R/M58T/I289L/F293L): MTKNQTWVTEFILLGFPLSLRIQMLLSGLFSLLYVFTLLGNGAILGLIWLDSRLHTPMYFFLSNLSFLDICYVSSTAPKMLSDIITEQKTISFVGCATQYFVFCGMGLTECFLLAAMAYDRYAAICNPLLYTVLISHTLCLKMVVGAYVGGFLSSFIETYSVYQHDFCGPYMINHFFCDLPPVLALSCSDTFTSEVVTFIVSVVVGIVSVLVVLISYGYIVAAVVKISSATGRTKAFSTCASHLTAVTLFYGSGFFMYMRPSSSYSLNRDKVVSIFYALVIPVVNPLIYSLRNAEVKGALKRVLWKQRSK
# Procedure: as §1, §2, §3, §4
# To test if the amino acids substitution could impact the musk sensitivity, and specificity and to validate the Krautwurst's model, luciferase assays were performed as described previously after transfection of the chimeric OR5A2_variant 1. Cells were treated with semi-logarithmic serial dilutions of musk compounds from the four structurally different groups described earlier.
# In each experiment, an empty vector was used as negative control (pEFIBRHO).
structure (smiles),measurement,setting,value
CCC1(O)C2(C)CCC(C2)C1(C)C (stereo not drawn) [2 ethyl-fenchol],"activation of OR11A1, concentration-response",OR11A1,able to activate OR11A1 only
same,"activation of OR5A2 (OR5A2_variant 1), concentration-response",OR5A2_variant 1,stimulated neither
same,"activation of OR5A1, concentration-response",OR5A1,able to activate OR11A1 only
same,"activation of OR5AN1, concentration-response",OR5AN1,stimulated neither
same,"activation of chimeric OR5A2_variant 1, concentration-response",chimeric OR5A2_variant 1,not activated
same,"activation of chimeric OR5A2_variant 1, concentration-response",chimeric OR5A2_variant 1; listed as ethyl-fenchol,not able to activate
